Experimental data published in ChEMBL document CHEMBL3046810, “Total synthesis of cis-solamin and its inhibitory action with bovine heart mitochondrial complex I” (Tetrahedron, 2004).

Target: NADH-ubiquinone oxidoreductase chain 1 (Bos taurus, UniProt P03887)
Assay: Inhibition of Bos taurus (bovine) mitochodrial complex 1 isolated from heart submitochondrial particle by NADH oxidase assay

Sequence of NADH-ubiquinone oxidoreductase chain 1 (P03887 whole entry): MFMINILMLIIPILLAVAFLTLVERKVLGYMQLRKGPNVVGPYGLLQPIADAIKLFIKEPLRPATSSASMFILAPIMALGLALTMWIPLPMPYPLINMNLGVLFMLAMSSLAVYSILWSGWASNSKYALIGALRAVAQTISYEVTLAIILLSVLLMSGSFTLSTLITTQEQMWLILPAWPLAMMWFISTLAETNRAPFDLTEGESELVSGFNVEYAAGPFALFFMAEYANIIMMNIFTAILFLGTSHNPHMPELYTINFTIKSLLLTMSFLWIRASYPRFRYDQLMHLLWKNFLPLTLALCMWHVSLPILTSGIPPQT

Work on CCCCCCCCCCCC[C@H](O)[C@@H]1CC[C@H]([C@H](O)CCCCCCCCCCCCC2=C[C@H](C)OC2=O)O1 (stereo in doubt; 1b) [CIS-SOLAMIN] yielded an IC50 of 2.1 nM.

Work on CCCCCCCCCCCC[C@@H](O)[C@H]1CC[C@H]([C@H](O)CCCC[C@@H](O)CCCCCCCC2=C[C@H](C)OC2=O)O1 [(10S)-COROSSOLINE] yielded an IC50 of 2 nM.

In the case of CCCCCCCCCCCC[C@H](O)[C@@H]1CC[C@H]([C@H](O)CCCCCCCCCCCCC2=C[C@H](C)OC2=O)O1 (stereo in doubt; 1a) [CIS-SOLAMIN], the IC50 is reported as 2.2 nM.

In the case of CCCCCCCCCCCC[C@@H](O)[C@H]1CC[C@H]([C@@H](O)CCCCCCCCCCCCCCC2=C[C@H](C)OC2=O)O1 [(17S, 18S, 21S, 22R)-reticulation-1], the IC50 is reported as 17 nM.

In the case of CCCCCCCCCCCC[C@@H](O)[C@H]1CC[C@H]([C@H](O)CCCC[C@H](O)CCCCCCCC2=C[C@H](C)OC2=O)O1 [COROSSOLINE], the IC50 is reported as 1.5 nM.

CCCCCCCCCCCC[C@H](O)[C@H]1CC[C@H]([C@H](O)CCCCCCCCCCCCCCC2=C[C@H](C)OC2=O)O1 [(17R,18R,21R,22S)-reticulation-1] showed an IC50 of 16 nM.

With CCCCCCCCCC[C@H](O)[C@H]1CC[C@H]([C@H]2CC[C@H]([C@H](O)CCCCCCCCCC[C@@H](O)CC3=C[C@H](C)OC3=O)O2)O1 [BULLATACIN] the IC50 was 0.8 nM.
